The target of the experiment is T1, HCV polymerase (Hepatitis C virus genotype 1b, UniProt P26663).
T1 construct: a region encoding NS5B (J Virol 1991 March, 65(3), 1105-13, 544 amino acids after deletion of 47 amino acids on the C-terminal); 6xHis (C); made in house; host or cells: Escherichia coli
Description: biochemical. Set-up: species or system HCV BK strain. In outline: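 His-tagged NS5B (BK strain, 47-aa C-terminal deletion, E. coli-expressed) at 0.5 μg/ml copied 5 μg/ml run-off RNA bearing the HCV 3′ UTR with 2 μM UTP plus [3H]UTP, 50 μM ATP/GTP, in pH 7.5 Tris with 5 mM MgCl2, 25 °C, 90 min. TCA-precipitated RNA was counted and IC50 calculated.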

Structures can show the parent of a compound that is named as a salt. A value given as a limit tells only on which side of the number the result lay.

T1 sequence (P26663 2420-2963): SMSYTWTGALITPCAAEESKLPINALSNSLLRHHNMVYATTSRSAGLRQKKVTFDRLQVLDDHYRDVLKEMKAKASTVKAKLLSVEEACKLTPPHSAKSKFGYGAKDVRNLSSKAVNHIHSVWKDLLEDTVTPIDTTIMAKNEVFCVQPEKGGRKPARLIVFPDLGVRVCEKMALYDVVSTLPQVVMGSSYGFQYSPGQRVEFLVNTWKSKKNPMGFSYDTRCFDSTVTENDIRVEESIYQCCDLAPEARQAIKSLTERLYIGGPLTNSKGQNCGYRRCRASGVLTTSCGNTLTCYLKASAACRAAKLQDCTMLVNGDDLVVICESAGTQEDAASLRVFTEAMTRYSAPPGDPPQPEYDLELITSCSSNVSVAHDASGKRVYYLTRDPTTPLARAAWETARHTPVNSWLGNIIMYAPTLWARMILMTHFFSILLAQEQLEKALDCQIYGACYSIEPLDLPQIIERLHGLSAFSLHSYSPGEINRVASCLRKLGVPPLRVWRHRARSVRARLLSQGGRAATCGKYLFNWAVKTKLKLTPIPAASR

On to `COc1ccc2c(c1)OCCn1c-2c(C2CCCCC2)c2ccc(C(=O)N[C@@H](Cc3ccc(NC(=O)OCc4ccccc4)cc3)C(=O)O)cc21` [Example 2-318, (S)-3-(4-benzyloxycarbonylaminophenyl)-2-[(12-cyclohexyl-3-methoxy-6,7-dihydro-5-oxa-7a-azadibenzo[a,e]azulene-9-carbonyl)amino]propionic acid], for which the IC50 was < 100 nM.

As for `COC(=O)[C@H](Cc1ccc(N)cc1)NC(=O)c1ccc2c(C3CCCCC3)c3n(c2c1)CCOc1cc(OC)ccc1-3` [Example 2-319, methyl (S)-3-(4-aminophenyl)-2-[(12-cyclohexyl-3-methoxy-6,7-dihydro-5-oxa-7a-azadibenzo[a,e]azulene-9-carbonyl)amino]propionate], the IC50 is < 100 nM.

Regarding `COc1ccc2c(c1)OCCn1c-2c(C2CCCCC2)c2ccc(C(=O)N[C@@H](Cc3ccc(N)cc3)C(=O)O)cc21` [Example 2-320, (S)-3-(4-aminophenyl)-2-[(12-cyclohexyl-3-methoxy-6,7-dihydro-5-oxa-7a-azadibenzo[a,e]azulene-9-carbonyl)amino]propionic acid], the IC50 is < 100 nM.

With `CC(C)(C)OC(=O)NC1CCN(C(=O)C(C)(C)NC(=O)c2ccc3c(C4CCCCC4)c4n(c3c2)CCOc2ccccc2-4)CC1` [Example 2-321, tert-butyl (1-{2-[(12-cyclohexyl-6,7-dihydro-5-oxa-7a-azadibenzo[a,e]azulene-9-carbonyl)amino]-2-methylpropionyl)piperidin-4-yl)carbamate], the IC50 is < 100 nM.

Turning to `CC(C)(NC(=O)c1ccc2c(C3CCCCC3)c3n(c2c1)CCOc1ccccc1-3)C(=O)N1CCC(O)C1` (centres unmarked) [Example 2-322, N-[2-(3-hydroxypyrrolidin-1-yl)-1,1-dimethyl-2-oxoethyl]-12-cyclohexyl-6,7-dihydro-5-oxa-7a-azadibenzo[a,e]azulene-9-carboxamide], the IC50 was < 100 nM.

Take `COCc1cccc(-c2cccc3c2OCCn2c-3c(C3CCCCC3)c3ccc(C(=O)O)cc32)c1` [Example 2-323, 12-cyclohexyl-4-(3-methoxymethylphenyl)-6,7-dihydro-5-oxa-7a-azadibenzo[a,e]azulene-9-carboxylic acid]: the IC50 is < 100 nM.

For `O=C(O)c1ccc2c(C3CCCCC3)c3n(c2c1)CCOc1c(Nc2ccccc2)cccc1-3` [Example 2-324, 12-cyclohexyl-4-phenylamino-6,7-dihydro-5-oxa-7a-azadibenzo[a,e]azulene-9-carboxylic acid], the IC50 is < 100 nM.

In the case of `O=C(O)c1ccc2c(C3CCCCC3)c3n(c2c1)CCOc1c(-c2ccccc2CO)cccc1-3` [Example 2-325, 12-cyclohexyl-4-(2-hydroxymethylphenyl)-6,7-dihydro-5-oxa-7a-azadibenzo[a,e]azulene-9-carboxylic acid], the IC50 is < 100 nM.

Consider `COCc1ccccc1-c1cccc2c1OCCn1c-2c(C2CCCCC2)c2ccc(C(=O)O)cc21` [Example 2-327, 12-cyclohexyl-4-(2-methoxymethylphenyl)-6,7-dihydro-5-oxa-7a-azadibenzo[a,e]azulene-9-carboxylic acid], for which the IC50 was < 100 nM.

As to `CN(C)Cc1cccc(-c2cccc3c2OCCn2c-3c(C3CCCCC3)c3ccc(C(=O)O)cc32)c1` [Example 2-328, 12-cyclohexyl-4-(3-dimethylaminomethylphenyl)-6,7-dihydro-5-oxa-7a-azadibenzo[a,e]azulene-9-carboxylic acid monohydrochloride], the IC50 is < 100 nM.

Take `CCOC(=O)c1ccc2c(c1)nc(C(C)(C)NC(=O)c1ccc3c(C4CCCCC4)c4n(c3c1)CCOc1ccccc1-4)n2C` [Example 2-329, ethyl 2-{1-[(12-cyclohexyl-6,7-dihydro-5-oxa-7a-azadibenzo[a,e]azulene-9-carbonyl)amino]-1-methylethyl}-1-methyl-1H-benzimidazole-5-carboxylate]: the IC50 was < 100 nM.

In general, IC50 refers to the concentration at which inhibition is half-maximal. A low value points to higher potency.

For the origin of these results see patent US20070049593A1 (priority 2004, published 2007).
